According to PubChem BioAssay AID1053172 (The Scripps Research Institute Molecular Screening Center, 2014):
Active and inactive are the calls of the source. The rule behind the calls is not given here.

biological target: HIV-1 integrase / human LEDGF/p75 complex; test: inhibitors of HIV-1 IN-LEDGF/p75 DNA integration, dose response, biochemical, TR-FRET (AID 1053172)

Row | Compound | IC50
1 | O=c1c2cc(O)c(O)cc2oc2cc(O)c(C3OC(CO)C(O)C(O)C3O)c(O)c12 (configuration not stated) | 1.74 µM
2 | CN(C)c1ccc2cc(S(=O)(=O)O)cc(O)c2c1 | 4.49 µM
3 | O=C1c2ccccc2C(=O)N1/N=C/c1ccc(O)c(O)c1 | 3 µM
4 | CC(C(=O)O)N1C(=O)/C(=C/C=C/c2ccco2)SC1=S (configuration not stated) | 0.452 µM
5 | Cc1ccc(N=C2NC(=O)/C(=C/C=C/c3ccco3)S2)cc1 | 9.14 µM
6 | COc1cccc(-n2c(SCc3cc(=O)oc4cc(O)c(O)cc34)nc3ccccc3c2=O)c1 | 3.81 µM
7 | Oc1ccc(C=Nc2cccc3ncccc23)c(O)c1 | > 36.5 µM (inactive)
8 | CCOC(=O)c1cc2c(=Cc3ccc(N(C)C)cc3)c3ccccc3n2[n+]1C | inactive
9 | O=C(O)CC(C(=O)O)N1C(=O)/C(=C/C=C/c2ccco2)SC1=S (configuration not stated) | 0.377 µM
10 | COc1ccc(NC(=S)Nc2ccc3nsnc3c2)cc1 | inactive
11 | N/C(=N\N=C/c1ccc(-c2ccc(O)c(C(=O)O)c2)o1)N[N+](=O)[O-] | 1.55 µM
12 | C[n+]1c2cc(N)ccc2cc2ccc(N)cc21 | 5.49 µM
13 | NC1=CC(=O)C(=O)c2cccnc21 | 2.14 µM
14 | CC1CCCC(C)N1/N=C/c1ccc(O)c(O)c1 (configuration not stated) | 3.37 µM
15 | CN(C(=O)COC(=O)c1cc(-c2ccco2)nc2ccccc12)C1CCS(=O)(=O)C1 (configuration not stated) | 7.42 µM
16 | Oc1ccc(/C=N/NC(=S)Nc2cccnc2)cc1O | 4.5 µM
17 | NNc1cccc(C=Cc2ccccc2)cc1=O | > 36.6 µM (inactive)
18 | O=c1cc(-c2ccc(O)cc2)oc2c(O)c(O)c(O)c(O)c12 | 0.341 µM
19 | CC1=CC(C)(C)N2C(=O)C(=Nc3ccc(O)cc3)c3cccc1c32 | > 12.2 µM (inactive)
20 | O=C(N/N=C/c1ccc(F)cc1)c1cc(-c2ccco2)nc2ccccc12 | 8.59 µM
21 | Cc1cc(-c2csc(N)n2)c(C)n1Cc1ccco1 | > 36.6 µM (inactive)
22 | COc1c(-c2ccc(O)c(O)c2)oc2cc(O)cc(O)c2c1=O | 1.9 µM
23 | C=CC1=C(C(=O)O)N2C(=O)[C@@H](NC(=O)/C(=N\OCC(=O)O)c3csc(N)n3)[C@H]2SC1 | 2.89 µM
24 | CCOc1ccc(NC(=O)CN(C)C(=O)c2cc3c(s2)CCC3)cc1OCC | 9.57 µM
25 | O=C(CCc1ccc(S(=O)(=O)N2CCOCC2)cc1)N/N=C/c1ccc(O)c(O)c1O | inactive
26 | O=C1S/C(=C\C=C\c2ccco2)C(=O)N1c1ccc(O)cc1 | 9.56 µM

Row | Compound | IC50
27 | O=c1cc(-c2ccc(O)cc2)oc2cc(O)c(C3OC(CO)C(O)C(O)C3O)c(O)c12 (configuration not stated) | 5.96 µM
28 | C/C(=N\NC(=O)c1cc(O)ccc1O)c1cccc(NC(=O)c2ccc(Cl)cc2)c1 | inactive
29 | O=C1C(=Cc2ccco2)CCC1=Cc1ccco1 | 1.92 µM
30 | C[C@@H]1O[C@@H](O[C@@H]2[C@@H](O)[C@H](OCCc3ccc(O)c(O)c3)O[C@H](CO)[C@H]2OC(=O)/C=C/c2ccc(O)c(O)c2)[C@H](O)[C@H](O)[C@H]1O | 1.41 µM
31 | COCCN=c1scc(-c2ccco2)n1/N=C/c1ccc(O)c(O)c1O | 3.26 µM
32 | Cc1ccc(/C=C2/C(=O)c3ccc(C(=O)O)cc3C2=O)o1 | 2.28 µM
33 | O=C(N/N=C/c1cccnc1)c1cc(O)c(O)c(O)c1 | inactive
34 | C[C@@H]1O[C@@H](Oc2c(-c3cc(O)c(O)c(O)c3)oc3cc(O)cc(O)c3c2=O)[C@H](O)[C@H](O)[C@H]1O | 1.64 µM
35 | O=C(O)c1cc(O)c2c(c1)[C@H]([C@H]1c3cc(C(=O)O)cc(O)c3C(=O)c3c(O[C@@H]4O[C@H](CO)[C@@H](O)[C@H](O)[C@H]4O)cccc31)c1cccc(OC3O[C@H](CO)[C@@H](O)[C@H](O)[C@H]3O)c1C2=O (some centres not stated) | 1.05 µM
36 | Oc1ccc(C[C@H]2NCCc3cc(O)c(O)cc32)cc1O | 3.23 µM
37 | O=C(CCN1C(=O)/C(=C/c2ccco2)SC1=S)Nc1ccc(O)cc1C(=O)O | inactive
38 | O=c1cc2c(=O)oc3cc(O)c(O)oc3c2c(O)c1O | 0.244 µM
39 | O=C1c2cc(O)c(O)cc2OC(c2ccc(O)c(O)c2)C1O (configuration not stated) | 4.69 µM
40 | COC(=O)c1ccc(C)c(NC(=O)CSc2sc3c(O)cc(=O)[nH]c3c2C#N)c1 | inactive
41 | O=C1C=C(O)c2[nH]c(=O)ccc2C1=O | 3.8 µM
42 | O=C1C=C(Nc2ccccc2O)c2ccccc2C1=O | 7.39 µM
43 | COC(=O)c1cc(O)cc(OC)c1Oc1cc(C)cc(O)c1C(=O)O | 2.59 µM
44 | COc1ccc(/C=N\NC(=O)c2cc(O)c(O)c(O)c2)cc1CN1CCN(c2ccc(F)cc2)CC1 | > 36.5 µM (inactive)
45 | S=c1[nH]nc(-c2ccco2)n1/N=C/C=C/c1ccco1 | inactive
46 | Nc1ccc2c(c1)C/C(=C/c1ccco1)C2=O | > 36.6 µM (inactive)
47 | NC1=NC(=O)/C(=C\c2ccco2)S1 | 3.99 µM
48 | COP(=O)(OC)c1ccc(NCc2cc(O)ccc2O)cc1 | inactive
49 | O=C(NCc1ccco1)c1cc2ccc(O)cc2oc1=O | inactive
50 | O=C(O)Cc1c[nH]c2cccc(O)c12 | 7.41 µM
51 | CCn1c(C)nc2cc(C(=O)N/N=C/c3ccc(O)c(O)c3O)ccc21 | 0.429 µM
52 | N#C/C(=C\c1cc(O)c(O)c(O)c1)C(N)=O | 9.6 µM
